Assay results: US7531482B2, “Thieno-pyrimidine compounds having fungicidal activity” (Dow AgroSciences LLC, priority 2005, dated 2009)

Legend:
Format in all cases: in vivo
[1] = tested on: Colletotricum lagenarium; assay: Cucumber Anthracnose (COLLLA) whole-plant disease control test; settings: Cucumis sativus, foliar; 200 ppm applied to foliage of cucumber; inoculated one day after treatment; read-out: COLLLA disease control
[2] = tested on: Erysiphe cichoracaerum; assay: Cucumber Powdery Mildew (ERYSCI) whole-plant disease control test; settings: Erysiphe, foliar; 200 ppm applied to foliage of cucumber; inoculated one day after treatment; read-out: ERYSCI disease control
[3] = tested on: Leptosphaeria nodorum; assay: Glume Blotch of Wheat (LEPTNO) whole-plant disease control test; settings: Parastagonospora nodorum, foliar; 200 ppm applied to foliage of wheat; inoculated one day after treatment; read-out: LEPTNO disease control
[4] = tested on: Phytophthora infestans; assay: whole plant or invertebrate; settings: Phytophthora infestans, in Solanum lycopersicum, foliar, read-out: PHYTIN disease control, 200 ppm applied to foliage of tomato; inoculated one day after treatment
[5] = tested on: Puccinia recondita tritici; assay: Leaf Rust of Wheat (PUCCRT) whole-plant disease control test; settings: Puccinia recondita, foliar, 200 ppm applied to foliage of wheat; inoculated one day after treatment; read-out: PUCCRT disease control
[6] = tested on: Magnaporthe grisea=Pyricularia oryzae; assay: whole plant or invertebrate; settings: Pyricularia oryzae, foliar, read-out: PYRIOR disease control, 200 ppm applied to foliage of rice; inoculated one day after treatment
[7] = tested on: Mycosphaerella graminicola=Septoria tritici; assay: Speckled Leaf Blotch of Wheat (SEPTTR) whole-plant disease control test; settings: Mycosphaerella, foliar, 75 ppm applied to foliage of wheat; read-out: SEPTTR disease control

| SMILES | pest or weed control at 200 ppm [1] [%] | pest or weed control at 200 ppm [2] [%] | pest or weed control at 200 ppm [3] [%] | pest or weed control at 200 ppm [4] [%] | pest or weed control at 200 ppm [5] [%] | pest or weed control at 200 ppm [6] [%] | pest or weed control at 75 ppm [7] [%] |
| --- | --- | --- | --- | --- | --- | --- | --- |
| FC(F)(F)c1ccnc(Oc2ccc(CCNc3ncnc4scc(Cl)c34)cc2)c1 [Compound 12] | 50 to 79 | 80 to 100 | 80 to 100 | 50 to 79 | 80 to 100 | 80 to 100 | 50 to 79 |
| N#Cc1ccnc(Oc2ccc(CCNc3ncnc4scc(Cl)c34)cc2)c1 [Compound 13] | 50 to 79 | 80 to 100 | 80 to 100 | 50 to 79 | 80 to 100 | 80 to 100 | 50 to 79 |
| O=C(Oc1ccc(CCNc2ncnc3scc(Cl)c23)cc1)c1ccccn1 [Compound 14] | 0 to 49 | 0 to 49 | 50 to 79 | 0 to 49 | 80 to 100 | 80 to 100 | 0 to 49 |
| O=C(Oc1ccc(CCNc2ncnc3scc(Cl)c23)cc1)c1ccc(Cl)nc1 [Compound 15] | 0 to 49 | 0 to 49 | 50 to 79 | 0 to 49 | 80 to 100 | 80 to 100 | 0 to 49 |
| Clc1csc2ncnc(NCCc3ccc(Oc4ncc(Br)s4)cc3)c12 [Compound 16] | 0 to 49 | 50 to 79 | 0 to 49 | 80 to 100 | 80 to 100 | 80 to 100 | 80 to 100 |
| Clc1csc2ncnc(NCCc3ccc(Oc4ncccn4)cc3)c12 [Compound 17] | 0 to 49 | 50 to 79 | 50 to 79 | 80 to 100 | 80 to 100 | 80 to 100 | 50 to 79 |
| Clc1csc2ncnc(NCCc3ccc(Oc4ccccn4)cc3)c12 [Compound 18] | 0 to 49 | 80 to 100 | 0 to 49 | 80 to 100 | 80 to 100 | 80 to 100 | 50 to 79 |
| [O-][n+]1ccccc1Oc1ccc(CCNc2ncnc3scc(Cl)c23)cc1 [Compound 19] | 0 to 49 | 50 to 79 | 0 to 49 | 80 to 100 | 80 to 100 | 80 to 100 | 50 to 79 |
| NC(=O)c1ccc(Oc2ccc(CCNc3ncnc4scc(Cl)c34)cc2)nc1 [Compound 21] | 0 to 49 | 0 to 49 | 0 to 49 | 0 to 49 | 80 to 100 | 0 to 49 | 0 to 49 |
| N#Cc1cc[n+]([O-])c(Oc2ccc(CCNc3ncnc4scc(Cl)c34)cc2)c1 [Compound 22] | 50 to 79 | 50 to 79 | 50 to 79 | 50 to 79 | 80 to 100 | 80 to 100 | 0 to 49 |
| CCOC(=O)c1ccc(Oc2ccc(CCNc3ncnc4scc(Cl)c34)cc2)nc1 [Compound 23] | 0 to 49 | 0 to 49 | 0 to 49 | 50 to 79 | 80 to 100 | 50 to 79 | 0 to 49 |
| O=Cc1ccc(Oc2ccc(CCNc3ncnc4scc(Cl)c34)cc2)nc1 [Compound 24] | 50 to 79 | 0 to 49 | 0 to 49 | 50 to 79 | 80 to 100 | 80 to 100 | 50 to 79 |
| COc1nc(OC)nc(Oc2ccc(CCNc3ncnc4scc(Cl)c34)cc2)n1 [Compound 26] | 0 to 49 | 0 to 49 | 0 to 49 | 0 to 49 | 80 to 100 | 50 to 79 | 0 to 49 |
| FC(F)(F)c1ccnc(Oc2ccc(CCNc3ncnc4scc(Cl)c34)cc2)n1 [Compound 27] | 50 to 79 | 80 to 100 | 0 to 49 | 50 to 79 | 80 to 100 | 80 to 100 | 50 to 79 |
| N#Cc1cccnc1Oc1ccc(CCNc2ncnc3scc(Cl)c23)cc1 [Compound 28] | 50 to 79 | 0 to 49 | 50 to 79 | 0 to 49 | 80 to 100 | 50 to 79 | 50 to 79 |
| N#Cc1ncc(F)cc1Oc1ccc(CCNc2ncnc3scc(Cl)c23)cc1 [Compound 29] | 50 to 79 | 0 to 49 | 0 to 49 | 0 to 49 | 80 to 100 | 50 to 79 | 50 to 79 |
| N#Cc1ncc(Oc2ccc(CCNc3ncnc4scc(Cl)c34)cc2)cc1F [Compound 30] | 80 to 100 | 50 to 79 | 0 to 49 | 50 to 79 | 80 to 100 | 80 to 100 | 50 to 79 |
| N#Cc1cccc(Oc2ccc(CCNc3ncnc4scc(Cl)c34)cc2)n1 [Compound 32] | 50 to 79 | 80 to 100 | 0 to 49 | 50 to 79 | 80 to 100 | 80 to 100 | 50 to 79 |
| CN(C)NC(=O)c1ccc(Oc2ccc(CCNc3ncnc4scc(Cl)c34)cc2)nc1 [Compound 33, 6-{4-[2-(5-Chlorothieno[2,3-d]pyrimidin-4-ylamino)ethyl]phenoxy}nicotinic acid N′,N′-dimethylhydrazide] | 50 to 79 | 0 to 49 | 0 to 49 | 50 to 79 | 80 to 100 | 80 to 100 | 0 to 49 |
| CO/N=C\c1ccc(Oc2ccc(CCNc3ncnc4scc(Cl)c34)cc2)nc1 [Compound 34, 6-{4-[2-(5-Chlorothieno[2,3-d]pyrimidin-4-ylamino)ethyl]phenoxy}pyridine-3-carbaldehyde O-methyloxime] | 80 to 100 | 80 to 100 | 0 to 49 | 0 to 49 | 80 to 100 | 80 to 100 | 50 to 79 |
| Fc1cccc(Oc2ccc(CCNc3ncnc4scc(Cl)c34)cc2)n1 [Compound 36] | 50 to 79 | 80 to 100 | 0 to 49 | 0 to 49 | 80 to 100 | 80 to 100 | 50 to 79 |
| Clc1cccc(Oc2ccc(CCNc3ncnc4scc(Cl)c34)cc2)n1 [Compound 37] | 80 to 100 | 80 to 100 | 0 to 49 | 0 to 49 | 80 to 100 | 80 to 100 | 50 to 79 |
| Clc1csc2ncnc(NCCc3ccc(Oc4cnccn4)cc3)c12 [Compound 38] | 50 to 79 | 50 to 79 | 0 to 49 | 50 to 79 | 80 to 100 | 50 to 79 | 50 to 79 |
| CC(=O)c1ccc(Oc2ccc(CCNc3ncnc4scc(Cl)c34)cc2)nc1 [Compound 39] | 0 to 49 | 50 to 79 | 0 to 49 | 80 to 100 | 80 to 100 | 80 to 100 | 0 to 49 |
| N#Cc1ncc(Oc2ccc(CCNc3ncnc4scc(Cl)c34)cc2)cn1 [Compound 40] | 0 to 49 | 50 to 79 | 0 to 49 | 80 to 100 | 80 to 100 | 80 to 100 | 0 to 49 |
| N#Cc1ccnc(Oc2ccc(CCNc3ncnc4scc(Cl)c34)cc2)n1 [Compound 41] | 0 to 49 | 50 to 79 | 0 to 49 | 80 to 100 | 80 to 100 | 80 to 100 | 0 to 49 |
